Consider twelve compounds from PubChem BioAssay (NCI).

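1) Cells in 96-well plates. 2) Compound, 48 h, 5 concentrations. 3) Linear interpolation between surrounding doses. 4) Unreached endpoint = highest concentration. TGI marks complete inhibition of growth.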 Some results are limits rather than exact numbers.

Test systems include MDA-MB-435; M14 melanoma; EKVX NSCLC; 786-0 renal; HT29 colon; HOP-92 NSCLC; CAKI-1 renal; SK-MEL-2 melanoma; UO-31 renal; MOLT-4 leukemia; NCI-H460 lung.
Common to all, as to assay: NCI anticancer screen, dose series, 48 h

In the case of `CC(=S)N=Cc1c(O)cc(C)oc1=O`, the TGI in the assay on MDA-MB-435, in the assay with M14 melanoma, in the assay with EKVX NSCLC, in the assay with 786-0 renal, in the assay with HT29 colon and in the assay on HOP-92 NSCLC was more than 100 µM in each case. Moreover, the TGI in the assay with CAKI-1 renal, with SK-MEL-2 melanoma, with UO-31 renal, in the assay with MOLT-4 leukemia and in the assay with NCI-H460 lung was more than 100 µM each time.

On to `CCC(C)C(=O)OC1CC2(C)C(c3ccoc3)OC(=O)CC23OC2(C)OC34C(OC(=O)C(C)C)C3(O)C(OC(=O)C5(C)OC5C)C5(C)CC3(O)C(C)(C5CC(=O)OC)C14O2` (centres undefined), for which the TGI with MDA-MB-435, in the assay on M14 melanoma, with EKVX NSCLC, in the assay on 786-0 renal, with HT29 colon and with HOP-92 NSCLC was more than 100 µM each time. For the same compound, the TGI in the assay with CAKI-1 renal is more than 100 µM; with SK-MEL-2 melanoma, more than 100 µM; with UO-31 renal, more than 100 µM; with MOLT-4 leukemia it was 65.8 µM; in the assay with NCI-H460 lung, more than 100 µM.

Take `CCC(=O)Oc1c2ccsc2c(OC(=O)CC)c2ccsc12`: the TGI in the assay with MDA-MB-435 was found to be 0.159 µM; in the assay on M14 melanoma, 0.305 µM; in the assay on EKVX NSCLC it was 2.51 µM; in the assay with 786-0 renal, 4.33 µM; in the assay on HT29 colon, 5.56 µM; in the assay on HOP-92 NSCLC, 3.98 µM. In addition, the TGI in the assay on CAKI-1 renal was 6.13 µM; in the assay with SK-MEL-2 melanoma, 1.39 µM; in the assay with UO-31 renal it was 1.45 µM; in the assay with MOLT-4 leukemia, more than 100 µM; with NCI-H460 lung it was 3.87 µM.

Take `c1ccc(/C(=N/Nc2ccccn2)c2ncccn2)cc1`: the TGI with MDA-MB-435 is more than 100 µM; in the assay on M14 melanoma, 6.93 µM; in the assay on EKVX NSCLC it was 5.73 µM; in the assay with 786-0 renal it was more than 100 µM; in the assay with HT29 colon it was more than 47.4 µM; in the assay on HOP-92 NSCLC it was more than 34.5 µM. Moreover, the TGI in the assay on CAKI-1 renal was 5.69 µM; with SK-MEL-2 melanoma, more than 100 µM; with UO-31 renal it was 6.27 µM; with NCI-H460 lung it was more than 57.8 µM.

As for `COc1ccc2cc(NC(=O)N/N=C\c3ccc(Cl)cc3)ccc2c1`, the TGI in the assay with MDA-MB-435, with M14 melanoma, in the assay with EKVX NSCLC, with 786-0 renal, in the assay on HT29 colon and in the assay with HOP-92 NSCLC was more than 100 µM throughout. Moreover, the TGI in the assay on CAKI-1 renal, in the assay on SK-MEL-2 melanoma, in the assay with UO-31 renal, in the assay with MOLT-4 leukemia and with NCI-H460 lung was more than 100 µM in each case.

As to `NC1CNC(=O)c2c(Cl)sc(Cl)c21` (centres undefined), the TGI in the assay on MDA-MB-435, with M14 melanoma, with EKVX NSCLC, in the assay on 786-0 renal, in the assay on HT29 colon and in the assay on HOP-92 NSCLC was more than 100 µM each time. Moreover, the TGI in the assay on CAKI-1 renal, in the assay with SK-MEL-2 melanoma, with UO-31 renal, in the assay on MOLT-4 leukemia and with NCI-H460 lung was more than 100 µM throughout.

In the case of `CN(C)S(=O)(=O)Nc1nnc(S(N)(=O)=O)s1`, the TGI in the assay on MDA-MB-435, with M14 melanoma, in the assay with EKVX NSCLC, in the assay on 786-0 renal, in the assay with HT29 colon and with HOP-92 NSCLC was more than 100 µM throughout. Further, the TGI in the assay with CAKI-1 renal, in the assay with SK-MEL-2 melanoma, with UO-31 renal, with MOLT-4 leukemia and with NCI-H460 lung was more than 100 µM in each case.

`COc1cc(I)c2c3c1OC1C34CCN(C)C(C2)C4=CC(I)C1(OC)OC` (centres undefined): the TGI in the assay on MDA-MB-435 is 33.8 µM; in the assay with M14 melanoma it was more than 100 µM; in the assay on EKVX NSCLC, more than 100 µM; in the assay on 786-0 renal, 43.7 µM; in the assay on HT29 colon, 83.6 µM; in the assay on HOP-92 NSCLC it was 45.6 µM. Also, the TGI with CAKI-1 renal turned out to be 93.8 µM; in the assay with SK-MEL-2 melanoma, 32.9 µM; in the assay on UO-31 renal it was 34.7 µM; with MOLT-4 leukemia it was 42.4 µM; with NCI-H460 lung, 38.7 µM.

In the case of `Brc1cccc(N=NN2CCCC2)c1`, the TGI with MDA-MB-435, in the assay on M14 melanoma, in the assay on EKVX NSCLC, in the assay with 786-0 renal, in the assay with HOP-92 NSCLC and in the assay with CAKI-1 renal was more than 100 µM each time. Further, the TGI with SK-MEL-2 melanoma, with UO-31 renal, with MOLT-4 leukemia and in the assay on NCI-H460 lung was more than 100 µM each time.

As for `CC(=O)OCC(OC(C)=O)C1C[C@H]2O[C@@H]3[C@H](C[C@H]2O1)O[C@@]1(C[C@@H]3C)C[C@H](C)[C@@H]2O[C@]3(C[C@@H]2O1)C[C@H]1O[C@H]2[C@H](C)[C@H]4OC(=O)CC5CC[C@H]6OC7[C@H]8O[C@]9(CC[C@H]%10CC(O)(CO)[C@H](CC[C@H]%11C[C@@H](C)C(O)(CO)C(C[C@@H]4O[C@H]2C[C@H]1O3)O%11)O%10)CC8O[C@@H]7[C@@H](O9)[C@H]6O5` (some centres undefined), the TGI in the assay on MDA-MB-435 was 0.0139 µM; with M14 melanoma it was more than 1 µM; in the assay on EKVX NSCLC, more than 1 µM; in the assay on 786-0 renal it was more than 1 µM; in the assay with HOP-92 NSCLC, more than 1 µM; with CAKI-1 renal, more than 1 µM. Moreover, the TGI in the assay with SK-MEL-2 melanoma, with UO-31 renal, in the assay with MOLT-4 leukemia and in the assay on NCI-H460 lung was more than 1 µM throughout.

`C=c1c(OC)c(OC)c(O)c2c1=c1cc([N+](=O)[O-])cc(OC)c1=N2`: the TGI in the assay with MDA-MB-435, in the assay on M14 melanoma, in the assay on EKVX NSCLC, with 786-0 renal, with HT29 colon and with HOP-92 NSCLC was more than 100 µM each time. Besides, the TGI in the assay with CAKI-1 renal, with SK-MEL-2 melanoma, with UO-31 renal, in the assay on MOLT-4 leukemia and with NCI-H460 lung was more than 100 µM throughout.

For `CC1(C)OCC2OC3([C@H]4OC(C)(C)O[C@@H]4CO)OC(C)(C)OC3C2O1` (some centres undefined), the TGI with MDA-MB-435, in the assay on M14 melanoma, with EKVX NSCLC, in the assay on 786-0 renal, with HT29 colon and in the assay with HOP-92 NSCLC was more than 100 µM each time. In addition, the TGI in the assay on CAKI-1 renal, with SK-MEL-2 melanoma, with UO-31 renal, in the assay on MOLT-4 leukemia and with NCI-H460 lung was more than 100 µM each time.
